# According to patent EP0427427A2, “Use of arylalkylamides in the treatment of neurodegenerative diseases” (FISONS CORPORATION, priority 1989, dated 1991):
# Where two headings read alike, the source gives them in different places.
# Columns and labels:
# Rats [1] = assay: 4-vessel occlusion model of stroke, viability of CA1 neurons in the hippocampus; format: in vivo; settings: ip doses of 20mg/kg twice daily for one week, first injection 30 minutes after reflow, 30 minutes 4-vessel occlusion, brains at 8 days
# Dogs [2] = assay: Global ischemia (clamping the ascending aorta), protection of CA1 neurons; settings: iv, 8 minutes global ischemia, treatment from 30 minutes after reflow, CA1 neurons on day 8
# Description: (§1) Dogs - Dogs are subjected to 8 minutes global ischemia (clamping the ascending aorta) and are treated iv with drug at 30 minutes after reflow. Treatment is given 6 hours later, b.i.d. for 2 more days and s.i.d. for 4 additional days. On day 8 the brains are removed and again drug protection of the vulnerable CA1 neurons is assessed. The Toxic doses are determined by administering the drug iv to conscious dogs in incremental doses and observing for side effects (we use preictal behaviour or convulsions as an endpoint).
# Mice [3] = assay: Protection against NMDLA induced seizures (convulsions); format: in vivo; settings: Mus musculus, 5 min, ip, evaluated for 5 minutes following iv injection of 150 mg/kg NMDLA
# Description: NMDA blocking activity may be measured by assessing a compound's ability to protect mice from convulsions induced by intravenous administration of 150 m/k of NMDA according to the procedures of Czuczwar et al., (Neurotransmitters, Seizures and Epilepsy III, edited by G. Nistico et al., Raven Press, New York 1986, pages 235-246). […] […] Animals were kept for 60 min after NMDA dosing and mortality was recorded.
# Rats [4] = assay: Neurotoxicity TD50, narrow plank walking test; settings: narrow plank test one hour after administration
# Description: Rats - Rats are subjected to the 4-vessel occlusion model of stroke for 30 minutes followed by drug injection at 30 minutes after blood reflow to the brain. The drugs are administered ip twice daily for one week. At 8 days post stroke the brains are removed and protection is determined by determining viability of the vulnerable CA1 neurons in the hippocampus (neutrons associated with short term memory). […] Rats that fall are scored as failures.
# Dogs [5] = settings: conscious dogs, iv incremental doses
# Description: as §1
# [6] = Inverted screen test of Coughenour et al. (TD50); settings: mouse, in vivo, mice, oral
# Mice [7] = assay: Protection against NMDLA induced mortality; format: in vivo; settings: Mus musculus, 1 h, ip, evaluated over 60 minutes after NMDLA injection (150 mg/kg iv)
# Description: NMDA blocking activity may be measured by assessing a compound's ability to protect mice from convulsions induced by intravenous administration of 150 m/k of NMDA according to the procedures of Czuczwar et al., (Neurotransmitters, Seizures and Epilepsy III, edited by G. Nistico et al., Raven Press, New York 1986, pages 235-246). Groups of mice were pretreated by 30 min with the test compound by the oral or intraperitoneal routes and then given NMDA. […] Animals were kept for 60 min after NMDA dosing and mortality was recorded.
# Mice [8] = assay: Antihypoxia studies (time to mortality in a hypoxic environment); format: in vivo; settings: Mus musculus, oral, dose that produces a 50% increase in the time to mortality in an hypoxic environment
# Description: Antihypoxia activity, that is, they extension of the lifetime of animals exposed to a hypoxic environment, may be conveniently measured in mice. Groups of mice are tested at various times after the intraperitoneal administration of graded doses of the test compound. The animals' survival time in a temperature controlled hypoxic environment (96% nitrogen and 4% oxygen) is recorded. A statistical comparison is made between coincident vehicle treated animals and the experimental group. […] Other modes of administration can also be used.
# Dogs [9] = settings: iv
# Description: as §1
# [10] = CD50: seizure following ip injection of the compound; settings: mouse, in vivo, mice, no inverted screen TD50 performed, CD50 = dose when 50% of mice experience a seizure following ip injection
SMILES,preventing loss of the CA1 neurons (Rats [1]),dose active in protecting dogs against stroke (Dogs [2]),ED50 (Mice [3]),ip doses for TD50s relative to neurotoxicity in the rat (Rats [4]),lowest toxic dose for convulsions (Dogs [5]),lowest toxic dose for preictal behaviour (Dogs [5]),TD50 [6],ED50 (Mice [7]),ED50 (Mice [8]),dose active in protecting dogs against stroke (Dogs [9]),TD50 [10]
"CC(Cc1ccccc1)(NC(=O)CN)c1ccccc1 (stereo not drawn) [Compound A, 2-amino-N-(1,2-diphenyl-1-methylethyl)acetamide]",effective,7.5 mg/kg,,,,,,,,,
"NCC(=O)NC(Cc1ccccc1)c1ccccc1 (stereo not drawn) [Compound B, 2-amino-N-(1,2-diphenylethyl)acetamide]",effective,,33 mg/kg,47,44 mg/kg,44 mg/kg,236 mg/kg,20.6 mg/kg,19.1 mg/kg,5 mg/kg,82.4 mg/kg
